Results published in patent publication EP4803147A2.
Like-named read-outs stand apart in the source and are kept apart here.

Question: Which ring closure, yield of all isomers (from CC(C)(CO)Cc1c(I)[nH]c2ccc(-c3csc(C[C@H](NC(=O)OC(C)(C)C)C(=O)N4CCC[C@@H](C(=O)O)N4)n3)cc12, ester bond, EDCI/HOBt/DIPEA, DCM, 17.57 mM, 25.0 °C, 16.0 h) does the source give for CC1(C)COC(=O)[C@@H]2CCCN(N2)C(=O)[C@@H](NC(=O)OC(C)(C)C)Cc2nc(cs2)-c2ccc3[nH]c(I)c(c3c2)C1 here?
Answer: 45.9%

Question: Which ring closure, yield of all isomers (from CCn1c(-c2cccnc2[C@H](C)OC)c(CC(C)(C)COC(=O)[C@@H]2CCCN(C(=O)[C@@H](NC(=O)OCC3c4ccccc4-c4ccccc43)C(c3nc(Br)cs3)N(C)C)N2)c2cc(B3OC(C)(C)C(C)(C)O3)ccc21, cc_pd bond, Pd(dtbpf)Cl2, toluene, 27.3 mM, 60.0 °C, 1.0 h) does the source give for CCn1c(-c2cccnc2[C@H](C)OC)c2c3cc(ccc31)-c1csc(n1)C(N(C)C)[C@H](NC(=O)OCC1c3ccccc3-c3ccccc31)C(=O)N1CCC[C@H](N1)C(=O)OCC(C)(C)C2 (some centres unmarked) here?
Answer: 19%

Question: For CCn1c(-c2cccnc2[C@H](C)OC)c2c3cc(ccc31)C1=CC(O[Si](c3ccccc3)(c3ccccc3)C(C)(C)C)CN(C1)C[C@H](NC(=O)OC(C)(C)C)C(=O)N1CCC[C@H](N1)C(=O)OCC(C)(C)C2 (some centres unmarked), which ring closure, yield of all isomers (from CCn1c(-c2cccnc2[C@H](C)OC)c(CC(C)(C)COC(=O)[C@@H]2CCCN(C(=O)[C@H](CN3CC(Br)=CC(O[Si](c4ccccc4)(c4ccccc4)C(C)(C)C)C3)NC(=O)OC(C)(C)C)N2)c2cc(B3OC(C)(C)C(C)(C)O3)ccc21, cc_pd bond, Pd(dppf)Cl2, K2CO3, toluene, 20.0 mM, 65.0 °C, 2.0 h) is on record?
Answer: 42%

Question: Which ring closure, yield of all isomers (from CCO[C@H](c1nc(Br)cs1)[C@H](NC(=O)OC(C)(C)C)C(=O)N1CCC[C@@H](C(=O)OCC(C)(C)Cc2c(-c3cc([C@@H]4C[C@H]5COC[C@@H](C4)N5C(=O)OCC4c5ccccc5-c5ccccc54)cnc3[C@H](C)OC)n(CC)c3ccc(B4OC(C)(C)C(C)(C)O4)cc23)N1, cc_pd bond, Pd(DtBPF)Cl2, toluene, 10.4 mM, 80.0 °C, 3.0 h) does the source give for CCO[C@@H]1c2nc(cs2)-c2ccc3c(c2)c(c(-c2cc([C@@H]4C[C@H]5COC[C@@H](C4)N5C(=O)OCC4c5ccccc5-c5ccccc54)cnc2[C@H](C)OC)n3CC)CC(C)(C)COC(=O)[C@@H]2CCCN(N2)C(=O)[C@H]1NC(=O)OC(C)(C)C here?
Answer: 65%

Question: Which ring closure, yield of all isomers (from CCO[C@H](c1nc(Br)cs1)[C@H](NC(=O)OC(C)(C)C)C(=O)N1CCC[C@@H](C(=O)OCC(C)(C)Cc2c(-c3cc(C4=CCN(C(=O)OCc5ccccc5)CC4)cnc3[C@H](C)OC)n(CC)c3ccc(B4OC(C)(C)C(C)(C)O4)cc23)N1, cc_pd bond, Pd(DtBPF)Cl2, K3PO4, toluene, 40.7 mM, 70.0 °C, 1.0 h) does the source give for CCO[C@@H]1c2nc(cs2)-c2ccc3c(c2)c(c(-c2cc(C4=CCN(C(=O)OCc5ccccc5)CC4)cnc2[C@H](C)OC)n3CC)CC(C)(C)COC(=O)[C@@H]2CCCN(N2)C(=O)[C@H]1NC(=O)OC(C)(C)C here?
Answer: 39%

Question: For CCn1c(-c2cccnc2[C@H](C)OC)c2c3cc(ccc31)-c1csc(n1)[C@@H](OCC(F)F)[C@H](NC(=O)OC(C)(C)C)C(=O)N1CCC[C@H](N1)C(=O)OCC(C)(C)C2, which ring closure, yield of all isomers (from CCn1c(-c2cccnc2[C@H](C)OC)c(CC(C)(C)COC(=O)[C@@H]2CCCN(C(=O)[C@@H](NC(=O)OC(C)(C)C)[C@H](OCC(F)F)c3nc(Br)cs3)N2)c2cc(B3OC(C)(C)C(C)(C)O3)ccc21, cc_pd bond, Pd(DtBPF)Cl2, K3PO4, toluene, 10.0 mM, 60.0 °C, 1.0 h) is on record?
Answer: 59%

Question: Which ring closure, yield of all isomers (from CCn1c(-c2cccnc2[C@H](C)OC)c(CC(C)(C)COC(=O)[C@@H]2CCCN(C(=O)[C@@H](NC(=O)OC(C)(C)C)[C@H](OCCN(C)C)c3nc(Br)cs3)N2)c2cc(B3OC(C)(C)C(C)(C)O3)ccc21, cc_pd bond, Pd(dtbpf)Cl2, K3PO4, toluene, 57.0 mM, 60.0 °C, 4.0 h) does the source give for CCn1c(-c2cccnc2[C@H](C)OC)c2c3cc(ccc31)-c1csc(n1)[C@@H](OCCN(C)C)[C@H](NC(=O)OC(C)(C)C)C(=O)N1CCC[C@H](N1)C(=O)OCC(C)(C)C2 here?
Answer: 50%

Question: For CCn1c(-c2cccnc2[C@H](C)OC)c2c3cc(ccc31)-c1csc(n1)C[C@H](NC(=O)OC(C)(C)C)C(=O)N1CCC[C@H](N1)C(=O)OCC(C)(C)C2, which ring closure, yield of all isomers (from CCn1c(-c2cccnc2[C@H](C)OC)c(CC(C)(C)CO)c2cc(-c3csc(C[C@H](NC(=O)OC(C)(C)C)C(=O)N4CCC[C@@H](C(=O)O)N4)n3)ccc21, ester bond, EDCI/HOBt/DIPEA, DCM, 12.65 mM, 25.0 °C, 16.0 h) is on record?
Answer: 81%

Question: Which ring closure, yield of all isomers (from CO[C@@H](C)c1ncccc1-c1c(CC(C)(C)CO)c2cc(-c3csc(C[C@H](NC(=O)OC(C)(C)C)C(=O)N4CCC[C@@H](C(=O)O)N4)n3)ccc2n1CCOC1CCOCC1, ester bond, EDCI/HOBt, DIPEA, DCM, 7.0 mM, 25.0 °C, 16.0 h) does the source give for CO[C@@H](C)c1ncccc1-c1c2c3cc(ccc3n1CCOC1CCOCC1)-c1csc(n1)C[C@H](NC(=O)OC(C)(C)C)C(=O)N1CCC[C@H](N1)C(=O)OCC(C)(C)C2 here?
Answer: 68%

Question: For CC1(C)COC(=O)[C@@H]2CCCN(N2)C(=O)[C@@H](NC(=O)OC(C)(C)C)Cc2nc(cs2)-c2ccc3c(c2)c(c(-c2ccnc(N4CCN(C(=O)OCc5ccccc5)CC4)c2)n3C(C)(C)C#N)C1, which ring closure, yield of all isomers (from CC(C)(CO)Cc1c(-c2ccnc(N3CCN(C(=O)OCc4ccccc4)CC3)c2)n(C(C)(C)C#N)c2ccc(-c3csc(C[C@H](NC(=O)OC(C)(C)C)C(=O)N4CCC[C@@H](C(=O)O)N4)n3)cc12, ester bond, EDCI/HOBT/DIPEA, DCM, 1.05 mM, 25.0 °C, 16.0 h) is on record?
Answer: 52%

Question: With CCn1c(-c2cc(N3CCN(C(=O)OCc4ccccc4)CC3)cnc2[C@H](C)OC)c2c3cc(ccc31)-c1csc(n1)C[C@H](NC(=O)OC(C)(C)C)C(=O)N1CCC[C@H](N1)C(=O)OCC(C)(C)C2 as the compound, how does the ring closure, yield of all isomers (from CCn1c(-c2cc(N3CCN(C(=O)OCc4ccccc4)CC3)cnc2[C@H](C)OC)c(CC(C)(C)CO)c2cc(-c3csc(C[C@H](NC(=O)OC(C)(C)C)C(=O)N4CCC[C@@H](C(=O)O)N4)n3)ccc21, ester bond, EDCI/HOBt/DIPEA, MeCN, 10.34 mM, 25.0 °C, 16.0 h) read?
Answer: 54.8%

Question: For CCO[C@@H]1c2nc(cs2)-c2ccc3c(c2)c(c(-c2cc(N4CCN(C(=O)OCc5ccccc5)CC4)cnc2[C@H](C)OC)n3CCOC(C)C)CC(C)(C)COC(=O)[C@@H]2CCCN(N2)C(=O)[C@H]1NC(=O)OC(C)(C)C, which ring closure, yield of all isomers (from CCO[C@H](c1nc(Br)cs1)[C@H](NC(=O)OC(C)(C)C)C(=O)N1CCC[C@@H](C(=O)OCC(C)(C)Cc2c(-c3cc(N4CCN(C(=O)OCc5ccccc5)CC4)cnc3[C@H](C)OC)n(CCOC(C)C)c3ccc(B4OC(C)(C)C(C)(C)O4)cc23)N1, cc_pd bond, Pd(dtbpf)Cl2, K3PO4, toluene, 16.0 mM, 65.0 °C, 2.0 h) is on record?
Answer: 44%

Question: Which ring closure, yield of all isomers (from CCO[C@H](c1nc(Br)cs1)[C@H](NC(=O)OC(C)(C)C)C(=O)N1CCC[C@@H](C(=O)OCC(C)(C)Cc2c(-c3cc(C4=CC5COCC(C4)N5C(=O)OCC4c5ccccc5-c5ccccc54)cnc3[C@H](C)OC)n(CC)c3ccc(B4OC(C)(C)C(C)(C)O4)cc23)N1, cc_pd bond, Pd(dppf)Cl2.DCM, toluene, 205.0 mM, 80.0 °C, 3.0 h) does the source give for CCO[C@@H]1c2nc(cs2)-c2ccc3c(c2)c(c(-c2cc(C4=CC5COCC(C4)N5C(=O)OCC4c5ccccc5-c5ccccc54)cnc2[C@H](C)OC)n3CC)CC(C)(C)COC(=O)[C@@H]2CCCN(N2)C(=O)[C@H]1NC(=O)OC(C)(C)C here?
Answer: 49%

Question: Which ring closure, yield of all isomers (from CCn1c(-c2cccnc2[C@H](C)OC)c(CC(C)(C)COC(=O)[C@@H]2CCCN(C(=O)[C@@H](NC(=O)OC(C)(C)C)[C@H](OCC3=CCN(C(=O)OCc4ccccc4)CC3)c3nc(Br)cs3)N2)c2cc(B3OC(C)(C)C(C)(C)O3)ccc21, cc_pd bond, Pd(dtbpf)Cl2, K3PO4, toluene, 60.0 °C, 2.0 h) does the source give for CCn1c(-c2cccnc2[C@H](C)OC)c2c3cc(ccc31)-c1csc(n1)[C@@H](OCC1=CCN(C(=O)OCc3ccccc3)CC1)[C@H](NC(=O)OC(C)(C)C)C(=O)N1CCC[C@H](N1)C(=O)OCC(C)(C)C2 here?
Answer: 32%

Question: With CCn1c(-c2cccnc2[C@H](C)OC)c2c3cc(ccc31)C1=CC[C@H](COC)N(C1)C[C@H](NC(=O)OC(C)(C)C)C(=O)N1CCC[C@H](N1)C(=O)OCC(C)(C)C2 as the compound, how does the ring closure, yield of all isomers (from CCn1c(-c2cccnc2[C@H](C)OC)c(CC(C)(C)COC(=O)[C@@H]2CCCN(C(=O)[C@H](CN3CC(Br)=CC[C@@H]3COC)NC(=O)OC(C)(C)C)N2)c2cc(B3OC(C)(C)C(C)(C)O3)ccc21, cc_pd bond, Pd(dppf)Cl2, K3PO4, toluene, 116.0 mM, 70.0 °C, 3.0 h) read?
Answer: 30%

Question: For CCO[C@@H]1c2nc(cs2)-c2ccc3c(c2)c(c(-c2cccnc2[C@H](C)OC)n3CC)CC(C)(C)COC(=O)[C@@H]2CCCN(N2)C(=O)[C@H]1NC(=O)OC(C)(C)C, which ring closure, yield of all isomers (from CCO[C@H](c1nc(Br)cs1)[C@H](NC(=O)OC(C)(C)C)C(=O)N1CCC[C@@H](C(=O)OCC(C)(C)Cc2c(-c3cccnc3[C@H](C)OC)n(CC)c3ccc(B4OC(C)(C)C(C)(C)O4)cc23)N1, cc_pd bond, Pd(DTBpf)Cl2/K3PO4, toluene, 26.7 mM, 60.0 °C, 1.0 h) is on record?
Answer: 31%

Question: Which ring closure, yield of all isomers (from CCO[C@H](c1nc(Br)cs1)[C@H](NC(=O)OC(C)(C)C)C(=O)N1CCC[C@@H](C(=O)OCC2(Cc3c(-c4cc(N5CCN(C(=O)OCc6ccccc6)CC5)cnc4[C@H](C)OC)n(CCOC(C)C)c4ccc(B5OC(C)(C)C(C)(C)O5)cc34)CC2)N1, cc_pd bond, XPhos-Pd-G3/XPhos, K3PO4, toluene, 28.0 mM, 65.0 °C, 2.0 h) does the source give for CCO[C@@H]1c2nc(cs2)-c2ccc3c(c2)c(c(-c2cc(N4CCN(C(=O)OCc5ccccc5)CC4)cnc2[C@H](C)OC)n3CCOC(C)C)CC2(CC2)COC(=O)[C@@H]2CCCN(N2)C(=O)[C@H]1NC(=O)OC(C)(C)C here?
Answer: 27%
